# Measurements reported in ChEMBL document CHEMBL1156502, “Stabilized immune modulatory RNA compounds as agonists of Toll-like receptors 7 and 8” (Proc Natl Acad Sci U S A, 2007).
# The source made the active and inactive calls. No cut-off for these calls is given here.
# How the values were obtained:
# [1] = Stability in 1% human serum assessed as full length product after 10 mins; type: ADME, cell-free; conditions: read-out: Stability
# [2] = target: T1, Toll-like receptor 8 (Homo sapiens) (UniProt Q9NR97); assay: Activation of human TLR8 expressed in HEK293 cells assessed as increase in NF-kappaB activation at 100 ug/ml by SEAP assay; type: cell-based
# T1 sequence (whole entry): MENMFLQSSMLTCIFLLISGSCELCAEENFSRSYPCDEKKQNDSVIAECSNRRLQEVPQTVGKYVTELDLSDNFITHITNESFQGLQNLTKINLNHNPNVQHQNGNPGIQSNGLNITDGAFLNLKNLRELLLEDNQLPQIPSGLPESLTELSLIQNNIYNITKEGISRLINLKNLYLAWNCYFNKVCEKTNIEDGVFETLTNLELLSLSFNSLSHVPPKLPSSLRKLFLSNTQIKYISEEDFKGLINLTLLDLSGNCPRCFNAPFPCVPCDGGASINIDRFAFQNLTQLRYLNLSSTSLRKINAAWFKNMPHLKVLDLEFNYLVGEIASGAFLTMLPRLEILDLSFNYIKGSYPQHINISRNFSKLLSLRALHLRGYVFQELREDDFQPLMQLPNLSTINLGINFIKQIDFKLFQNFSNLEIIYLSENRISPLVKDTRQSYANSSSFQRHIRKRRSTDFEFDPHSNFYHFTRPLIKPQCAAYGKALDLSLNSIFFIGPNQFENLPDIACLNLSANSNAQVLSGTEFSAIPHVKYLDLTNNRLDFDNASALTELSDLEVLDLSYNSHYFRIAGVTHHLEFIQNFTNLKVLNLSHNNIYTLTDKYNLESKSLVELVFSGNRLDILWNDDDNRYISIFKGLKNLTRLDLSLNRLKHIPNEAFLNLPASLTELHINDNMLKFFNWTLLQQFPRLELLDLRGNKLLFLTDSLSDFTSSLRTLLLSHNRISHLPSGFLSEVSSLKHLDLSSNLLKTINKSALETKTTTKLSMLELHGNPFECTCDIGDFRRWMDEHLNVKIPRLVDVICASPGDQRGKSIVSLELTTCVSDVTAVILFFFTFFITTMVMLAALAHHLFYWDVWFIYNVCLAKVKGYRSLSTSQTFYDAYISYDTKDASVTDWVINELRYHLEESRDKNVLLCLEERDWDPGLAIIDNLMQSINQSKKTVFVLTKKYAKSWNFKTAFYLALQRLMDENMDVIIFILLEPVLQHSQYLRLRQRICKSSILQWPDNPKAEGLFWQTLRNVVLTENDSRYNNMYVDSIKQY
# [3] = target: T2, Toll-like receptor 7 (Homo sapiens) (UniProt Q9NYK1); assay: Activation of human TLR7 expressed in HEK293 cells assessed as increase in NF-kappaB activation at 100 ug/ml by SEAP assay; type: cell-based
# T2 sequence (whole entry): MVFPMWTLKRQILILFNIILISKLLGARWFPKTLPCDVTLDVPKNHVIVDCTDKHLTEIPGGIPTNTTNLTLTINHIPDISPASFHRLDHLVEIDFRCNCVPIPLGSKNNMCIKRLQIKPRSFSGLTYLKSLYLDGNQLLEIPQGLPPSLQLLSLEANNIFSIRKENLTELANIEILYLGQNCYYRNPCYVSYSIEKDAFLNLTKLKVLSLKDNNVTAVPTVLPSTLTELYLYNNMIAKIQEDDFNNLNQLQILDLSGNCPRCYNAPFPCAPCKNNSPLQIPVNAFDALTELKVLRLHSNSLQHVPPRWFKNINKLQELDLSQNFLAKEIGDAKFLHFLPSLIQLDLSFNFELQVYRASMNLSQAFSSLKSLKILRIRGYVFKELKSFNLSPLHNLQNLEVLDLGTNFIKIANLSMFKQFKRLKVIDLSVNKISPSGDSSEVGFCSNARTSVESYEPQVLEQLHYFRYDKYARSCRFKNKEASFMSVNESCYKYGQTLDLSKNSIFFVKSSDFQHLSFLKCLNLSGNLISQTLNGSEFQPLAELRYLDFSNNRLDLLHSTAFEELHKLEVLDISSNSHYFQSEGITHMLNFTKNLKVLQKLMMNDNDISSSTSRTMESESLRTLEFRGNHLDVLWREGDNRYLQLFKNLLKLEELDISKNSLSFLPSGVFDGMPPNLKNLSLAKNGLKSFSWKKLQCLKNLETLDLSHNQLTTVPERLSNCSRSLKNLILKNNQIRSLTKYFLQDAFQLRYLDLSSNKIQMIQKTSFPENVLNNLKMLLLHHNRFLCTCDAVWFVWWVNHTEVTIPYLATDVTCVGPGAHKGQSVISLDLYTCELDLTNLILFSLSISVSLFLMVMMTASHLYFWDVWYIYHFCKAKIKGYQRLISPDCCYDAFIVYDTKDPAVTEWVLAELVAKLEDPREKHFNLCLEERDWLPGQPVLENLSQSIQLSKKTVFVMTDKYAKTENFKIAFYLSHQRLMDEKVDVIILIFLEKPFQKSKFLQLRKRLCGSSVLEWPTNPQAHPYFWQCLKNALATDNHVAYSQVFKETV
Compound,remaining at 10 min [1] [%],Activity [2],Activity [3]
Nc1ccn([C@@H]2O[C@H](COP(O)(=S)O[C@H]3[C@@H](O)[C@H](n4ccc(N)nc4=O)O[C@@H]3COP(O)(=S)O[C@H]3[C@@H](O)[C@H](n4cnc5c(=O)[nH]c(N)nc54)O[C@@H]3COP(O)(=S)O[C@H]3[C@@H](O)[C@H](n4ccc(=O)[nH]c4=O)O[C@@H]3COP(O)(=S)O[C@H]3[C@@H](O)[C@H](n4ccc(N)nc4=O)O[C@@H]3COP(O)(=S)O[C@H]3[C@@H](O)[C@H](n4cnc5c(=O)[nH]c(N)nc54)O[C@@H]3COP(O)(=S)O[C@H]3[C@@H](O)[C@H](n4ccc(=O)[nH]c4=O)O[C@@H]3CO)[C@@H](OP(O)(=S)OC[C@H]3O[C@@H](n4ccc(=O)[nH]c4=O)[C@H](O)[C@@H]3OP(O)(=S)OC[C@H]3O[C@@H](n4ccc(=O)[nH]c4=O)[C@H](O)[C@@H]3OP(O)(=S)OC[C@H]3O[C@@H](n4ccc(=O)[nH]c4=O)[C@H](O)[C@@H]3OP(O)(=S)OC[C@H]3O[C@@H](n4cnc5c(=O)[nH]c(N)nc54)[C@H](O)[C@@H]3OP(O)(=S)OCC(O)COP(O)(=S)O[C@H]3[C@@H](O)[C@H](n4cnc5c(=O)[nH]c(N)nc54)O[C@@H]3COP(O)(=S)O[C@H]3[C@@H](O)[C@H](n4ccc(=O)[nH]c4=O)O[C@@H]3COP(O)(=S)O[C@H]3[C@@H](O)[C@H](n4ccc(=O)[nH]c4=O)O[C@@H]3COP(O)(=S)O[C@H]3[C@@H](O)[C@H](n4ccc(=O)[nH]c4=O)O[C@@H]3COP(O)(=S)O[C@H]3[C@@H](O)[C@H](n4ccc(N)nc4=O)O[C@@H]3COP(O)(=S)O[C@H]3[C@@H](O)[C@H](n4ccc(N)nc4=O)O[C@@H]3COP(O)(=S)O[C@H]3[C@@H](O)[C@H](n4cnc5c(=O)[nH]c(N)nc54)O[C@@H]3COP(O)(=S)O[C@H]3[C@@H](O)[C@H](n4ccc(=O)[nH]c4=O)O[C@@H]3COP(O)(=S)O[C@H]3[C@@H](O)[C@H](n4ccc(N)nc4=O)O[C@@H]3COP(O)(=S)O[C@H]3[C@@H](O)[C@H](n4cnc5c(=O)[nH]c(N)nc54)O[C@@H]3COP(O)(=S)O[C@H]3[C@@H](O)[C@H](n4ccc(=O)[nH]c4=O)O[C@@H]3CO)[C@H]2O)c(=O)n1 (some centres undefined),66,Active,inactive
Nc1ccn([C@@H]2O[C@H](COP(O)(=S)O[C@H]3[C@@H](O)[C@H](n4cnc5c(=O)[nH]c(N)nc54)O[C@@H]3COP(O)(=S)O[C@H]3[C@@H](O)[C@H](n4ccc(=O)[nH]c4=O)O[C@@H]3COCCCCCO)[C@@H](OP(O)(=S)OC[C@H]3O[C@@H](n4ccc(=O)[nH]c4=O)[C@H](O)[C@@H]3OP(O)(=S)OC[C@H]3O[C@@H](n4cnc5c(=O)[nH]c(N)nc54)[C@H](O)[C@@H]3OP(O)(=S)OC[C@H]3O[C@@H](n4ccc(N)nc4=O)[C@H](O)[C@@H]3OP(O)(=S)OC[C@H]3O[C@@H](n4ccc(=O)[nH]c4=O)[C@H](O)[C@@H]3OP(O)(=S)OC[C@H]3O[C@@H](n4ccc(=O)[nH]c4=O)[C@H](O)[C@@H]3OP(O)(=S)OC[C@H]3O[C@@H](n4cnc5c(=O)[nH]c(N)nc54)[C@H](O)[C@@H]3OP(O)(=S)OC[C@H]3O[C@@H](n4ccc(=O)[nH]c4=O)[C@H](O)[C@@H]3OP(O)(=S)OC[C@H]3O[C@@H](n4cnc5c(=O)[nH]c(N)nc54)[C@H](O)[C@@H]3OP(O)(=S)OCC(O)COP(O)(=S)O[C@H]3[C@@H](O)[C@H](n4cnc5c(=O)[nH]c(N)nc54)O[C@@H]3COP(O)(=S)O[C@H]3[C@@H](O)[C@H](n4ccc(=O)[nH]c4=O)O[C@@H]3COP(O)(=S)O[C@H]3[C@@H](O)[C@H](n4cnc5c(=O)[nH]c(N)nc54)O[C@@H]3COP(O)(=S)O[C@H]3[C@@H](O)[C@H](n4ccc(=O)[nH]c4=O)O[C@@H]3COP(O)(=S)O[C@H]3[C@@H](O)[C@H](n4ccc(=O)[nH]c4=O)O[C@@H]3COP(O)(=S)O[C@H]3[C@@H](O)[C@H](n4ccc(N)nc4=O)O[C@@H]3COP(O)(=S)O[C@H]3[C@@H](O)[C@H](n4cnc5c(=O)[nH]c(N)nc54)O[C@@H]3COP(O)(=S)O[C@H]3[C@@H](O)[C@H](n4ccc(=O)[nH]c4=O)O[C@@H]3COP(O)(=S)O[C@H]3[C@@H](O)[C@H](n4ccc(N)nc4=O)O[C@@H]3COP(O)(=S)O[C@H]3[C@@H](O)[C@H](n4cnc5c(=O)[nH]c(N)nc54)O[C@@H]3COP(O)(=S)O[C@H]3[C@@H](O)[C@H](n4ccc(=O)[nH]c4=O)O[C@@H]3COCCCCCO)[C@H]2O)c(=O)n1 (some centres undefined),82,Active,inactive
Nc1nc2c(ncn2[C@@H]2O[C@H](COP(O)(=S)O[C@H]3[C@@H](O)[C@H](n4ccc(=O)[nH]c4=O)O[C@@H]3COP(O)(=S)O[C@H]3[C@@H](O)[C@H](n4ccc(=O)[nH]c4=O)O[C@@H]3COP(O)(=S)O[C@H]3[C@@H](O)[C@H](n4ccc(=O)[nH]c4=O)O[C@@H]3COP(O)(=S)O[C@H]3[C@@H](O)[C@H](n4cnc5c(=O)[nH]c(N)nc54)O[C@@H]3COP(O)(=S)O[C@H]3[C@@H](O)[C@H](n4ccc(=O)[nH]c4=O)O[C@@H]3COP(O)(=S)O[C@H]3[C@@H](O)[C@H](n4ccc(=O)[nH]c4=O)O[C@@H]3COP(O)(=S)O[C@H]3[C@@H](O)[C@H](n4cnc5c(=O)[nH]c(N)nc54)O[C@@H]3COP(O)(=S)O[C@H]3[C@@H](O)[C@H](n4cnc5c(=O)[nH]c(N)nc54)O[C@@H]3COP(O)(=S)O[C@H]3[C@@H](O)[C@H](n4ccc(=O)[nH]c4=O)O[C@@H]3COP(O)(=S)O[C@H]3[C@@H](O)[C@H](n4ccc(=O)[nH]c4=O)O[C@@H]3CO)[C@@H](OP(O)(=S)OCC(O)COP(O)(=S)O[C@H]3[C@@H](O)[C@H](n4cnc5c(=O)[nH]c(N)nc54)O[C@@H]3COP(O)(=S)O[C@H]3[C@@H](O)[C@H](n4ccc(=O)[nH]c4=O)O[C@@H]3COP(O)(=S)O[C@H]3[C@@H](O)[C@H](n4ccc(=O)[nH]c4=O)O[C@@H]3COP(O)(=S)O[C@H]3[C@@H](O)[C@H](n4ccc(=O)[nH]c4=O)O[C@@H]3COP(O)(=S)O[C@H]3[C@@H](O)[C@H](n4cnc5c(=O)[nH]c(N)nc54)O[C@@H]3COP(O)(=S)O[C@H]3[C@@H](O)[C@H](n4ccc(=O)[nH]c4=O)O[C@@H]3COP(O)(=S)O[C@H]3[C@@H](O)[C@H](n4ccc(=O)[nH]c4=O)O[C@@H]3COP(O)(=S)O[C@H]3[C@@H](O)[C@H](n4cnc5c(=O)[nH]c(N)nc54)O[C@@H]3COP(O)(=S)O[C@H]3[C@@H](O)[C@H](n4cnc5c(=O)[nH]c(N)nc54)O[C@@H]3COP(O)(=S)O[C@H]3[C@@H](O)[C@H](n4ccc(=O)[nH]c4=O)O[C@@H]3COP(O)(=S)O[C@H]3[C@@H](O)[C@H](n4ccc(=O)[nH]c4=O)O[C@@H]3CO)[C@H]2O)c(=O)[nH]1 (some centres undefined),94,Active,inactive
